Results: patent US20030087753A1, “System for microbial control of a fluid” (priority 2001, published 2003)

Legend:
[1] = Adsorption and release of various antibiotics on ultra-stable zeolite Y (USY); assay type: physicochemical; conditions: for Amount antibiotic in 20 mg zeolite/ml: USY suspended to 20 mg/ml; for Release concentration of antibiotic: dried USY suspended to 20 mg/ml in buffer; for Amount adsorbed antibiotic/mg zeolite: ultra-stable zeolite Y (USY), amount calculated
Experimental: This example illustrates adsorption and release of various antibiotics. Ultra-stable zeolite Y (USY) was incubated with various antibiotics and the amounts absorbed to the zeolite were calculated. Then the zeolite was dried and suspended to 20 mg/ml in buffer and the concentrations of released antibiotics in the solutions were determined.

[2] = Release of cephalothin from ultra-stable zeolite Y (USY) at pH 2.5 and pH 8.0; assay type: physicochemical; conditions: 20 mg/ml USY; 10 mM phosphate buffer pH 8.0 after 10 mM glycin pH 2.5
Experimental: This example illustrates release of cephalothin from ultra-stable zeolite Y (USY) and is described with reference to the diagram in FIG. 10.
Ultra-stable zeolite Y (USY) was incubated with the antibiotic cephalothin 5 mg/ml after which the zeolite was sucked dry and further dried in warm closet. Zeolite with adsorbed cephalothin was suspended repeatedly to 20 mg/ml in 10 mM glycin pH 2.5 (▪) and the concentration of cephalothin in the solutions was determined by absorbency measurement at 260 nm. Then the zeolite was suspended in 10 mM phosphate buffer pH 8.0 (●).

[3] = tested on: Staphylococcus aureus (ATCC 6538); experiment: Growth inhibition of Staphylococcus aureus by m-cresol adsorbed on zeolite USY (Eur. Pharm. efficacy of antimicrobial preservation); assay type: cell-based; conditions: 5 mg m-cresol/ml dissolved in water, positive control
Experimental: This example illustrates growth inhibition of Staphylococcus aureus (ATCC 6538), FU ml-1) after incubation with m-cresol adsorbed on zeolite. Test according to Eur. Pharm. nd Ed. VIII 14 (1992). Efficacy of antimicrobial preservation.
Ultra-stable zeolite Y (USY, 63-125 μm particles) was incubated with m-cresol […] after which the zeolite was sucked dry and further dried in warm closet overnight. Zeolite with adsorbed m-cresol was then suspended in PBS and was incubated with Staphylococcus aureus at 37° C. The concentration of m-cresol in the solution after the suspension of zeolite was 0.14 mg/ml.

Molecule | Amount antibiotic in 20 mg zeolite/ml [1] | Release concentration of antibiotic [1] | Amount adsorbed antibiotic/mg zeolite [1] | also measured
CC1(C)S[C@@H]2[C@H](NC(=O)[C@H](N)c3ccccc3)C(=O)N2[C@H]1C(=O)O [Ampicilin] | 2.8 mg/mL | 400 µg/mL | 0.14 mg | 
CC(=O)OCC1=C(C(=O)O)N2C(=O)[C@@H](NC(=O)Cc3cccs3)[C@H]2SC1 [Cephalothin] | 4.2 mg/mL | 4.6 µg/mL | 0.21 mg | release of cephalothin from the zeolite on change of pH [2]: increased release
O=C(N[C@H](CO)[C@H](O)c1ccc([N+](=O)[O-])cc1)C(Cl)Cl [Chloramphemicol] | 2.5 mg/mL | 7 µg/mL | 0.125 mg | 
Cc1cccc(O)c1 [Free m-cresol, m-cresol] |  |  |  | CFU/ml ([3]; incubation time 0 h): 5.9 × 10^6 CFU/ml; CFU/ml ([3]; incubation time 2 h): 1.2 × 10^2 CFU/ml; CFU/ml ([3]; incubation time 4 h): 24 CFU/ml; CFU/ml ([3]; incubation time 8 h): 3 CFU/ml; CFU/ml ([3]; incubation time 24 h): 0 CFU/ml; CFU/ml ([3]; incubation time 48 h): 0 CFU/ml
[H]/N=C(/N)N[C@H]1[C@H](O)[C@@H](O)[C@H](O[C@@H]2O[C@@H](C)[C@](O)(C=O)[C@H]2O[C@@H]2O[C@@H](CO)[C@H](O)[C@@H](O)[C@@H]2NC)[C@@H](N/C(N)=N\[H])[C@@H]1O [Streptomycin] | 9.6 mg/mL | 4800 µg/mL | 0.48 mg | 
CN(C)[C@@H]1C(=O)C(C(N)=O)=C(O)[C@@]2(O)C(=O)C3=C(O)c4c(O)cccc4[C@@](C)(O)[C@H]3C[C@@H]12 [Tetracyclin] | 1.8 mg/mL | 220 µg/mL | 0.09 mg | 
Gentamycin | 3.6 mg/mL |  | 0.18 mg | 
